Measured values reported in ChEMBL document CHEMBL1133220, “Potent new leucine aminopeptidase inhibitor of novel structure synthesised by a modified Wadsworth-Emmons (Horner) Wittig procedure” (Bioorg Med Chem Lett, 2000).

Target: Cytosol aminopeptidase (Homo sapiens, UniProt P28838)
Assay: Inhibitory activity against leucine aminopeptidase

Sequence of Cytosol aminopeptidase (P28838 whole entry): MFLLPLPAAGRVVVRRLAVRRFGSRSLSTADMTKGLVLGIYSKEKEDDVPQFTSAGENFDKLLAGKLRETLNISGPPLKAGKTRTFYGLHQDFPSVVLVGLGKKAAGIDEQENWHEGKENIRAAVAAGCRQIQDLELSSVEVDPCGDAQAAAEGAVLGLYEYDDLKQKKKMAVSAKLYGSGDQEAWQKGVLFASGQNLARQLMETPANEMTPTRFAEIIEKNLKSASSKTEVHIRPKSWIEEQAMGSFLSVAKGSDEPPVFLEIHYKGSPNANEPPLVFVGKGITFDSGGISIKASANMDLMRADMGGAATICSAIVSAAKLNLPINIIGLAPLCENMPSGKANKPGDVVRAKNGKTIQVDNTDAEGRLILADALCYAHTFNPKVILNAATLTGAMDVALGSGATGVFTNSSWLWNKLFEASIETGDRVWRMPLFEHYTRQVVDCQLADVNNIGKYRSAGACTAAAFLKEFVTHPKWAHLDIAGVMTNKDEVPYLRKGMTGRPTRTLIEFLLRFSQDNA

Ki: 76 nM
SMILES: COC(=O)/C=C\C(=O)[C@@H](N)CC(C)C
